Measurements published in ChEMBL document CHEMBL1201862, “PubChem BioAssay data set” (2004).
The source made the active and inactive calls.

What was measured:
SUMO-activating enzyme = SUMO-activating enzyme (Homo sapiens, UniProt Q9UBT2); experiment: blockers of UBC9-mediated SUMO conjugation – biochemical, AlphaScreen, SUMOylation inhibitor project, confirmation (AID 2018); format: functional
[1] = A cytotoxicity screen of small molecule inhibitors of the PhoP region in Salmonella typhi identified in the primary screen. [Related pubchem assays: 1850, 1864, 1985 ]; format: functional
Tumor necrosis factor = Tumor necrosis factor (Homo sapiens, UniProt P01375); experiment: analog potency on TNFa NF-kB signaling – cell-based, revised, SAR follow-up (AID 2337); format: functional
[2] = target: Nucleotide-binding oligomerization domain-containing protein 2 (Homo sapiens, UniProt Q9HC29); experiment: PubChem AID 2334; format: functional
HEK293 = experiment: cells; conditions: Homo sapiens;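 note: cells exposed to compound for 14 hours overnight before viability readout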
[3] = target: T1, Nucleotide-binding oligomerization domain-containing protein 1 (Homo sapiens, UniProt Q9Y239); experiment: blockers of NOD1 pathway activity – revised, SAR follow-up (AID 2333); format: functional
T1 sequence (Q9Y239 whole entry): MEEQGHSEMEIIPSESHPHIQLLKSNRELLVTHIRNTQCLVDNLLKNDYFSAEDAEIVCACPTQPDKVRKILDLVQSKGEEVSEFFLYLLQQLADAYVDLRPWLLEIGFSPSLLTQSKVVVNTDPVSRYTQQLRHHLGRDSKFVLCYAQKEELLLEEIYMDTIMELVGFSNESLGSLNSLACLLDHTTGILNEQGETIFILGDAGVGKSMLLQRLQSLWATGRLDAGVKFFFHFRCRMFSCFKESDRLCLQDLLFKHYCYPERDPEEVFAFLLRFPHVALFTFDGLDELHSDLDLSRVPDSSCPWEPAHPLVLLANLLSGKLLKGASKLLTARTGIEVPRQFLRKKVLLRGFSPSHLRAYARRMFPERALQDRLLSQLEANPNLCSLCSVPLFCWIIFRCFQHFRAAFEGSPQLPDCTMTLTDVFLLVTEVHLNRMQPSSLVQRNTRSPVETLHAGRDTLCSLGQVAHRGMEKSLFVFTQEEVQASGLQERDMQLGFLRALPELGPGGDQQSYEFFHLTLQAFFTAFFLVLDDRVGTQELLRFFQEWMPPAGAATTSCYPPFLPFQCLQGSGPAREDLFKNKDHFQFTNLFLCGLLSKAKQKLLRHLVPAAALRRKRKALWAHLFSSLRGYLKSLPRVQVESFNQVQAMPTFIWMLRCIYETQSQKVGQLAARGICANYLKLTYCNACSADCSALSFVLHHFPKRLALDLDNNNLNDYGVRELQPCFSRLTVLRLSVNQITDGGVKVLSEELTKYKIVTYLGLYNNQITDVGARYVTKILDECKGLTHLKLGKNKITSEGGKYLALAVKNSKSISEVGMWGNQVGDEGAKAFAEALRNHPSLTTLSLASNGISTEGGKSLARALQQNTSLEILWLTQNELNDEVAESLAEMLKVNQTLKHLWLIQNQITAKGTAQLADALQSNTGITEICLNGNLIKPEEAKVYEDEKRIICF

Estrogen receptor beta = Estrogen receptor beta (Homo sapiens, UniProt Q92731); experiment: blockers of SRC-3 recruitment to ERβ – biochemical, ELISA, streptavidin-HRP readout, orthogonal assay, confirmation (AID 1060)
[4] = target: T2, Ubiquitin-conjugating enzyme E2 N (Homo sapiens, UniProt P61088); format: functional;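 note: Dose-response confirmation in a TR-FRET assay detecting UBC13-driven polyubiquitin chain formation, inhibition measured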
T2 sequence (P61088 whole entry): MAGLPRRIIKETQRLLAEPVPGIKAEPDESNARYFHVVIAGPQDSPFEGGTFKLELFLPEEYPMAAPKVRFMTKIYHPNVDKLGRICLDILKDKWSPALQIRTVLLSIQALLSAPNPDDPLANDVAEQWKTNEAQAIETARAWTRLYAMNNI

[5] = target: Eukaryotic translation initiation factor 4E (Mus musculus, UniProt P63073); experiment: blockers of eIF4G binding by eIF4E – biochemical, TR-FRET, dose response (AID 855); format: functional;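 note: potency for disrupting eIF4E binding to eIF4GI seen as loss of FRET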
[6] = Luminescence Cell-Based Dose Retest to Confirm Inhibitors of Cancer Stem Cells. [Related pubchem assays (depositor defined):AID2717, AID2721]; format: functional; conditions: Homo sapiens
[7] = Trypanosoma cruzi growth suppression in host cells – NIH3T3 host cells, beta-gal luminescence, confirmation (AID 2044); format: functional, cell-based;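 note: intracellular parasites grown in NIH/3T3 mouse fibroblasts as host cells; luminescent beta-galactosidase reporter signal from transgenic T. cruzi replicating inside host cells; inhibitors lower the luminescence signal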
[8] = NIH3T3 cell viability loss – ATP luminescence, mouse fibroblasts, counter-screen, dose response (AID 2010); format: functional, cell-based;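 note: cells exposed to compound for about 90 hours before reading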
[9] = target: T3, Polyadenylate-binding protein 1 (Homo sapiens, UniProt P11940); experiment: MLLE binding blockers, Cy5 peptide tracer – biochemical, fluorescence polarization, Cy5-PAM2 peptide, secondary, miRNA deadenylation inhibitor project, dose response (AID 602260); format: functional; conditions: read-out: IC50_Mean
[10] = target: DNA dC->dU-editing enzyme APOBEC-3G (Homo sapiens, UniProt Q9HC16); experiment: Dose Response confirmation of small molecule APOBEC3G DNA Deaminase Inhibitors via a fluorescence-based single-stranded DNA deaminase assay. [Related pubchem assays (depositor defined):AID493012, AID493028]; format: functional
[11] = target: T3, Polyadenylate-binding protein 1; experiment: MLLE domain peptide-binding blockers, IC50 – biochemical, fluorescence polarization, FITC-PAM2 peptide, dose response (AID 602259); format: functional; conditions: read-out: IC50_Mean
[12] = Vero E6 cell cytotoxicity, dose response, cytotoxicity control for non-replicating M. tuberculosis project, secondary assay (AID 492998); format: functional, VeroE6; conditions: Vero C1008
[13] = HepG2 cell cytotoxicity, dose response, cytotoxicity control for non-replicating M. tuberculosis project (AID 489018); format: functional; conditions: Mycobacterium tuberculosis
[14] = THP-1 cell cytotoxicity, dose response, cytotoxicity control for non-replicating M. tuberculosis project (AID 489025); format: functional
cells = format: functional
[15] = target: Luciferin 4-monooxygenase (Photinus pyralis, UniProt P08659); experiment: inhibition of purified Photinus pyralis luciferase – biochemical, luminescence, dose response (AID 1891)
Prothrombin = Prothrombin (Homo sapiens, UniProt P00734); experiment: Thrombin 1536 HTS Dose Response Confirmation. [Related pubchem assays: 1046 (Thrombin 1536 HTS; hits were confirmed in this assay)]; format: functional
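Throughout, for AC50: cells exposed to compound for roughly 70 hours or longer before luminescence read.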

Nucleotide-binding oligomerization domain-containing protein 2, sequence (Q9HC29 whole entry, the tested form may be a part): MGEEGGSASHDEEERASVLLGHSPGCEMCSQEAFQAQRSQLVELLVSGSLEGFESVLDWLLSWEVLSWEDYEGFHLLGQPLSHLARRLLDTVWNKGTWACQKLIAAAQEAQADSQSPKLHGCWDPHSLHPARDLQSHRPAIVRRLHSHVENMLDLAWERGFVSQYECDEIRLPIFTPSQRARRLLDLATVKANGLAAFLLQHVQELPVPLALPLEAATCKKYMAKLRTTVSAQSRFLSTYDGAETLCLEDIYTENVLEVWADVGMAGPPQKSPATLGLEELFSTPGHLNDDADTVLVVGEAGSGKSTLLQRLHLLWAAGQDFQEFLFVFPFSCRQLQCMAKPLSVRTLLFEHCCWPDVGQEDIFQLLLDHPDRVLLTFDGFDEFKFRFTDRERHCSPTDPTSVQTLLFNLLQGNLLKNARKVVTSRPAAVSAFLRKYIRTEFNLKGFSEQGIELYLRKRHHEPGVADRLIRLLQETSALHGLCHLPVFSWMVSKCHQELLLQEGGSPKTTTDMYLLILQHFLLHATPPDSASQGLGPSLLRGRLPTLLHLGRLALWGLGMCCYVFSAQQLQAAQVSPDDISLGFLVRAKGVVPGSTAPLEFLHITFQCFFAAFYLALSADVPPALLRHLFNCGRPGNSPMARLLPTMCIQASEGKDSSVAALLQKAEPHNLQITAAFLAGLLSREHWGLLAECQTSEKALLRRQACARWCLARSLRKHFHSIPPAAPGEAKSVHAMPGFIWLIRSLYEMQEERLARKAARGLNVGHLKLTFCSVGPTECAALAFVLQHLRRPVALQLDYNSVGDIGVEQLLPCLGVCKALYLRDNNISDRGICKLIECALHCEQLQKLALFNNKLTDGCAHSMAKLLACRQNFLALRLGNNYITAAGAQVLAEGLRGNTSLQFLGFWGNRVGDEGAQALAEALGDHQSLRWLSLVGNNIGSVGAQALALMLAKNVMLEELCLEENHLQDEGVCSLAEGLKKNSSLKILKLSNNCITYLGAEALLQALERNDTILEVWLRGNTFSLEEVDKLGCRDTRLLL
Tumor necrosis factor, sequence (P01375 whole entry, the tested form may be a part): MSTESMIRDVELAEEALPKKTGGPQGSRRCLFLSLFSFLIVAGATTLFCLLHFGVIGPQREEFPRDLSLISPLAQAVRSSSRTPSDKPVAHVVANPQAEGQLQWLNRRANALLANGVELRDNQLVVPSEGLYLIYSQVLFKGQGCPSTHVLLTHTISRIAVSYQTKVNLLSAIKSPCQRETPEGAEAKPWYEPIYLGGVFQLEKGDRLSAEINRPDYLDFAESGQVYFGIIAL
SUMO-activating enzyme, sequence (Q9UBE0 whole entry): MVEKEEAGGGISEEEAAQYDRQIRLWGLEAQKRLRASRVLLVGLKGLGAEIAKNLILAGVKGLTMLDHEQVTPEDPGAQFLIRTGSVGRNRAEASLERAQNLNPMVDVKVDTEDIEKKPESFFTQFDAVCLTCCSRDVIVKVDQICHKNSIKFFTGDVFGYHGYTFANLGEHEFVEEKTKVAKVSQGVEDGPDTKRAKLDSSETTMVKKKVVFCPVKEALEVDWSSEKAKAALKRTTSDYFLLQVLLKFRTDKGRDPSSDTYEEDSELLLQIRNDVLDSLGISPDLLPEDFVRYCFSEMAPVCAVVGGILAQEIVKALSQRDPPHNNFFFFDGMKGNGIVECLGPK
SUMO-activating enzyme, sequence (Q9UBT2 whole entry): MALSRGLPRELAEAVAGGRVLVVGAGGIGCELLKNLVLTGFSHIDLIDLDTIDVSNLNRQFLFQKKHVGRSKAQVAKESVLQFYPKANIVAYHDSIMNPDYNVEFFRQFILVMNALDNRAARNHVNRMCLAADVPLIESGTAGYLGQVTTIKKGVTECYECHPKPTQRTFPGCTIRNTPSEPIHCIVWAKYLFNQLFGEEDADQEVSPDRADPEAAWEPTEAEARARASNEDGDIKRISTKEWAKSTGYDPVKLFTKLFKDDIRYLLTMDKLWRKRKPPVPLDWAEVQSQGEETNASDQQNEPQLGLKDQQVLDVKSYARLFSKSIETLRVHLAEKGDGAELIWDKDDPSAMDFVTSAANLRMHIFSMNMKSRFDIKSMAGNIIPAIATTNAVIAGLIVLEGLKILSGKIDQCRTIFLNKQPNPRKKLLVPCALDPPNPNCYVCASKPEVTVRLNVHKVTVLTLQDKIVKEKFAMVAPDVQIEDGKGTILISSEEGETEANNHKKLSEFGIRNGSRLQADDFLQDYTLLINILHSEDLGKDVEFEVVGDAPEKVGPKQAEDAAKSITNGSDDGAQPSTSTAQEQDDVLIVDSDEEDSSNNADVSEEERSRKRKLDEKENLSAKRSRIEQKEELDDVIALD
T3 sequence (P11940 whole entry): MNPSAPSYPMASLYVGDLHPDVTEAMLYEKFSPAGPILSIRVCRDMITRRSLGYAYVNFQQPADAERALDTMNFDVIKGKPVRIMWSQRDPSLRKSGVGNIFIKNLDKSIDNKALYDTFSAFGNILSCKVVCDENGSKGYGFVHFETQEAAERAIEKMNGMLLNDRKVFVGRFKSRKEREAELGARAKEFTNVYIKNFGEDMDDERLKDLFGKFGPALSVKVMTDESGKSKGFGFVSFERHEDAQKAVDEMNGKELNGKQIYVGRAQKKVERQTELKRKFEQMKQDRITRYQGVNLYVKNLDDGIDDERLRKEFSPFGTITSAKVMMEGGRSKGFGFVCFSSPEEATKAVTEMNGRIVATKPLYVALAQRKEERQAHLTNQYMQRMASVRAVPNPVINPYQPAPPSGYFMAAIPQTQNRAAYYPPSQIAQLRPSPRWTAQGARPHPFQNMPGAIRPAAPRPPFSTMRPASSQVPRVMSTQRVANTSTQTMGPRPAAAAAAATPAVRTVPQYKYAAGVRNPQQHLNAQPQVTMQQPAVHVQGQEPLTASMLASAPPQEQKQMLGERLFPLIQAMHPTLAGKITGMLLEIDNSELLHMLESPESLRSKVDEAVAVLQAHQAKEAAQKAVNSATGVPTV
Eukaryotic translation initiation factor 4E, sequence (P63073 whole entry): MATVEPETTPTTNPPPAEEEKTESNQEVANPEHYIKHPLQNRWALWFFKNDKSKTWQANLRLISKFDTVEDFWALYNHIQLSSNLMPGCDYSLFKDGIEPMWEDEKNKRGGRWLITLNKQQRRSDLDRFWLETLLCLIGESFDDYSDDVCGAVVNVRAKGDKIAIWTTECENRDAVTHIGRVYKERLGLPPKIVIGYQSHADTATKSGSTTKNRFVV
Estrogen receptor beta, sequence (Q92731 whole entry): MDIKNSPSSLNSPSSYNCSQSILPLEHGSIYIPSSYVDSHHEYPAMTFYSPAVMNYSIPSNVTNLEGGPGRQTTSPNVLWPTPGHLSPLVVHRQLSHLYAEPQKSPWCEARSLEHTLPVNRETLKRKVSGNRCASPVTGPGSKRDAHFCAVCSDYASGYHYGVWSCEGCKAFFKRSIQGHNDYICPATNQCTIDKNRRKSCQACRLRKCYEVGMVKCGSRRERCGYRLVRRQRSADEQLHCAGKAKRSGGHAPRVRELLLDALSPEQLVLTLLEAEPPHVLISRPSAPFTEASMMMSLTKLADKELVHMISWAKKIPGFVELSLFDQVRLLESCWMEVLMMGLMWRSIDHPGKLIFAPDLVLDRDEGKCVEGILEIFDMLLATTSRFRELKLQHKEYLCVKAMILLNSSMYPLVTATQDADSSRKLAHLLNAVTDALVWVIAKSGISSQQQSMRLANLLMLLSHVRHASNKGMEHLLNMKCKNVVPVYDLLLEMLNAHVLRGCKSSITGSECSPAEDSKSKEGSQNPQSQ
Luciferin 4-monooxygenase, sequence (P08659 whole entry): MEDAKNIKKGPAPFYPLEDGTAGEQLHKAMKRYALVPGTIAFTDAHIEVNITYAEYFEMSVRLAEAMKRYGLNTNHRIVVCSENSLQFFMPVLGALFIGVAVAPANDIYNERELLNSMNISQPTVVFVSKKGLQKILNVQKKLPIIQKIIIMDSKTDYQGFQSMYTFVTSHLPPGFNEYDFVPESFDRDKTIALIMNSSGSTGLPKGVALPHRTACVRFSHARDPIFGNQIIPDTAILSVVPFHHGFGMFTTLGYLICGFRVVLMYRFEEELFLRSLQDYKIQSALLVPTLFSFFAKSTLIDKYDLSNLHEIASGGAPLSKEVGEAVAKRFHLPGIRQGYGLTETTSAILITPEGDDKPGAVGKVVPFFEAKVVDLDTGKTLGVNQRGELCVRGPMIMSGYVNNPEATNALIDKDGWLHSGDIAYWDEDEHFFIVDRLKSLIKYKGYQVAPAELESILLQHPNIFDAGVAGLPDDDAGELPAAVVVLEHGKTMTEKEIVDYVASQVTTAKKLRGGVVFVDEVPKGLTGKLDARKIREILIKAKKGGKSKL
DNA dC->dU-editing enzyme APOBEC-3G, sequence (Q9HC16 whole entry, the tested form may be a part): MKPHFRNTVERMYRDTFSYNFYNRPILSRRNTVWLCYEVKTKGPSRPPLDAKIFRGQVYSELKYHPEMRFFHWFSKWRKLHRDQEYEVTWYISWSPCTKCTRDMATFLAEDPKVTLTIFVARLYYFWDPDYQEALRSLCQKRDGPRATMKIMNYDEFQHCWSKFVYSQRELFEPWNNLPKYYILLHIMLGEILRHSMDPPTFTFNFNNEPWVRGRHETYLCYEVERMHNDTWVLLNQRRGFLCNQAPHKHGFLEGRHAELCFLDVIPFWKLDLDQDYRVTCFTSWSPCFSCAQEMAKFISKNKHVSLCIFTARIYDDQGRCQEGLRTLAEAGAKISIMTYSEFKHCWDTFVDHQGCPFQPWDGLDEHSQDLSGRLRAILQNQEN

Q: With `NC(=O)CC(NC(=O)Cc1cccc2ccccc12)c1ccc(NCCc2ccccc2F)c([N+](=O)[O-])c1` (stereo not drawn) as the compound, how does the IC50 (SUMO-activating enzyme) read?
A: 39 µM (active)

Q: With `Cc1nc2cc(C(=O)N3CCC4(CC3)OCCO4)ccc2n1-c1cccc(F)c1` as the compound, how does the EC50 [1] read?
A: > 50 µM (active)

Q: What does the source list for `O=C(Nc1nc2ccccc2n1Cc1ccc(Cl)cc1)c1ccc(F)cc1`?
A: IC50 (Tumor necrosis factor): > 20 µM (inactive); IC50 [2]: > 20 µM (inactive); IC50 (HEK293): > 20 µM (inactive); IC50 [3]: > 20 µM (inactive)

Q: Which IC50 (Estrogen receptor beta) does the source give for `Cc1nc2ncnn2c(N2CCN(C(=O)Cc3cccs3)CC2)c1C` here?
A: 0.107 µM (not active)

Q: Which IC50 [4] does the source give for `CCN1CCN(CCNC(=O)c2ccc3c(c2)N(Cc2ccc(F)cc2)C(=O)/C(=C/c2ccccc2)S3)CC1` here?
A: > 20 µM (inactive)

Q: What about the IC50 [5] of the same compound?
A: 50 µM (inactive)

Q: What about the AC50 [6] of the same compound?
A: 3.61 µM (active)

Q: For `COc1cc(NC(=O)c2cncc(-c3ccc(C#N)cc3)c2)cc(C(=O)Nc2cccc(C(F)(F)F)c2)c1`, which IC50 (SUMO-activating enzyme) is on record?
A: 53.5 µM (active)

Q: For `O=C(NCCc1ccncc1)Nc1ccc(Cl)c(Cl)c1`, which EC50 [7] is on record?
A: 1.34 µM (active)

Q: And the EC50 [8]?
A: > 60 µM (not active)

Q: And the EC50 [1]?
A: > 50 µM (active)

Q: Which results are given for `Cc1ccc2c(c1)-c1c(ssc1=S)C(C)(C)N2C(=O)c1ccco1`?
A: IC50 [9]: > 66 µM (inactive); IC50 [10]: > 100 µM (inactive); IC50 [11]: > 66 µM (inactive)

Q: Which results are given for `N#C/C(=C(/O)COC(=O)CSc1ccc(Cl)cc1)c1nc2ccccc2[nH]1`?
A: IC50 (Tumor necrosis factor): > 20 µM (inactive); IC50 [2]: > 20 µM (inactive); IC50 (HEK293): > 20 µM (inactive); IC50 [3]: > 20 µM (inactive)

Q: For `O=C(O)c1c(-n2cccc2)sc2c1CCCC2`, which IC50 (Tumor necrosis factor) is on record?
A: > 20 µM (inactive)

Q: What about the IC50 [2] of the same compound?
A: > 20 µM (inactive)

Q: What about the IC50 (HEK293) of the same compound?
A: > 20 µM (inactive)

Q: And the IC50 [3]?
A: > 20 µM (inactive)

Q: For `N#CCCn1c2ccccc2c2nc3ccccc3nc21`, which EC50 [1] is on record?
A: > 50 µM (active)

Q: Which IC50 [5] does the source give for `O=C(O)C1CC(c2ccccc2F)=NO1` (stereo not drawn) here?
A: > 64 µM (inactive)

Q: Which EC50 [1] does the source give for `Cc1c(CC(=O)N2CCC(C(N)=O)CC2)c(=O)oc2cc3c(cc12)CCC1(CCCCC1)O3` here?
A: > 50 µM (active)

Q: With `O=C(Nc1nc2ccccc2n1Cc1ccc(Cl)cc1)C1CCCCC1` as the compound, how does the IC50 (Tumor necrosis factor) read?
A: > 20 µM (inactive)

Q: What about the IC50 [2] of the same compound?
A: > 20 µM (inactive)

Q: What about the IC50 (HEK293) of the same compound?
A: > 20 µM (inactive)

Q: And the IC50 [3]?
A: > 20 µM (inactive)

Q: Which results are given for `CC(=O)Nc1nc2ccccc2n1Cc1ccccc1Cl`?
A: IC50 (Tumor necrosis factor): 19.9 µM (active); IC50 [2]: > 20 µM (inactive); CC50 [12]: 15.5 µM (active); IC50 (HEK293): > 20 µM (inactive); CC50 [13]: > 20 µM (active); IC50 [3]: > 20 µM (inactive); CC50 [14]: 14.1 µM (active); IC50 (cells): 4.15 µM (active)

Q: For `O=C(COC(=O)c1n[nH]c2ccccc12)Nc1cccc(S(=O)(=O)N2CCOCC2)c1`, which EC50 [15] is on record?
A: > 112 µM (not active)

Q: And the IC50 (Prothrombin)?
A: 1.11 µM (active)

Q: For `COc1ccc(Cl)cc1NC(=O)CN(C)CC(=O)Nc1ccccc1C(F)(F)F`, which EC50 [1] is on record?
A: > 50 µM (active)
